Patent US5691311A (Biogen, Inc., priority 1995, dated 1997)
Each block holds one compound with its values, some of them ahead of it.

Experiments:
fibrin(ogen) deposition = assay: Fibrin(ogen) deposition in AV shunt thrombi; type: in vivo, baboon; conditions: collagen-coated tubing, 60 minute exposure
Method: Fibrin deposition was determined by measurement of ^125 I-fibrin(ogen) 30 days after completion of the ^111 In-platelet assay described above. This allowed the ^111 In label to decay to a non-interfering level.

HUVECs = assay: Thrombin-induced polymorphonuclear leukocyte (PMN) adhesion to HUVECs; type: cell-based, human; conditions: 5 μg/ml, α-thrombin 0.1 or 1 U/ml
Method: HUVECs are grown to confluence in MEM containing 1% fetal calf serum in 24-well cluster plates. The medium is then removed, the cells are washed two times with fresh, serum-free medium and incubated in the same medium for 10-30 minutes at 37° C. to remove serum products. PMNs (2.5×10^6 in 1 ml), which are pre-equilibrated at 37° C., are then added to each well. The PMNs are allowed to settle onto the HUVEC monolayer for 2 minutes. […] The cells are incubated for 5 minutes at 37° C., washed twice and then examined by phase-contrast microscopy. Adherent PMNs are counted directly.

[1] = test system: thrombin-induced platelet activation; assay: Thrombin-induced platelet activation in platelet-rich plasma; type: cell-based, human; conditions: 0-500 ng/ml, thrombin 0.2, 0.25 or 0.5 units/ml
Method: Thrombin-induced platelet activation studies are performed at 37° C. using a Biodata PAP4 Platelet Aggregometer. Platelet-rich plasma (PRP) is obtained from normal, healthy, volunteers who have not taken any medication altering platelet function for at least one week prior to study. PRP is prepared as described by J. A. Jakubowski et al., "Modification of Human Platelet by a Diet Enriched in Saturated or Polyunsaturated Fat", Atherosclerosis, 31, pp. 335-44 (1978). […] One minute later, we add human α-thrombin to the platelet suspension to a final concentration of 0.2, 0.25 or 0.5 units/ml total assay volume. Aggregation is monitored as an increase in light transmission for 5 minutes following the addition of thrombin. We then calculate % Inhibition as (% aggregationsample)/(% aggregationcontrol)×100.

[2] = test system: human umbilical vein endothelial cells (HUVECs); assay: Thrombin-induced synthesis of platelet activating factor (PAF); type: cell-based; conditions: 0-1 μg/ml, thrombin 1 U/ml
Method: The ability of the thrombin inhibitors of this invention to prevent thrombin-induced synthesis of platelet activating factor (PAF) is assayed using cultured human umbilical vein endothelial cells (HUVECs). HUVECS are extracted from human umbilical cords by collagenase digestion according to established procedures [M. A. Gimborne, Jr., "Culture of Vascular Endothelium", Prog. Hemost. Thromb., 3, pp. 1-28 (1976)]. HUVECs are grown to confluence in a 96-well microtiter plate in the presence of [^3 H]-acetate. Cells cultured in this manner produce [^3 H]-acetyl-PAF, which may be quantitated by extraction of HUVEC membrane phospholipids.
Cells are incubated for 5 minutes and the supernatant is then removed. Medium containing 0.1% gelatin, 50 mM acetic acid in methanol (2:1 v/v) is then added to the HUVECs. PAF is then extracted and quantified using conventional techniques [T. M. Mcintyre et al., "Cultured Endothelial Cells Synthesize Both Platelet-Activating Factor and Prostacyclin in Response to Histamine, Bradykinin and Adenosine Triphosphate", J. Clin. Invest., 76, pp. 271-80 (1985)]. The IC50 values are then calculated.

[3] = test system: platelet-dependent thrombosis; assay: Platelet deposition on thrombogenic surfaces in exteriorized AV shunt; type: in vivo, baboon
Method: Specifically, we placed various thrombogenic surfaces in a chronic exteriorized AV shunt in the animals. These surfaces included segments of endarterectomized baboon aorta, collagen-coated silastic tubing, collagen-coated Gortex and Dacron vascular graft. Following placement in the shunt, the surfaces were exposed to native flowing blood to elicit thrombus formation. We measured the formation of thrombi over a period of 60 minutes by monitoring the deposition of platelets on the thrombogenic surface. These measurements were recorded by external gamma-camera imaging following pre-infusion of the test animal with autologous ^111 In-labeled platelets.

hemostasis = assay: Template bleeding time; type: in vivo, baboon
APTT [4] = assay: In vivo anticoagulant activity, APTT after intravenous infusion; design: species or system baboon
Method: Whole blood from treated and control animals was removed from a catheter placed in the femoral vein and collected into 3.8% sodium citrate (9:1; blood:sodium citrate). Plasma was obtained by standard methods and the APTT was recorded by methods described in Example 10.

[5] = test system: platelet-dependent thrombus formation; assay: High and low shear platelet-dependent thrombus formation, dual-chamber device; type: in vivo, baboon; conditions: 0.05 mg/kg/min, 40 minutes
Excerpt: The device was comprised of a 2 cm segment of collagen-coated Gortex followed by 2 cm segments of expanded diameter. Using this device, thrombus formation was initiated by exposure of native flowing blood to a segment of the collagen-coated Gortex at high shear. This part of the experimental protocol simulated arterial-like conditions. When the blood entered the expanded diameter segments, low-shear, vortex conditions were maintained, thereby simulating venous thrombosis. In control animals, a total of 9.3±2.3×10^8 and 6.1±0.5×10^8 platelets/cm accumulated after 40 minutes in the high and low shear segments, respectively.

sarcoma T241 cells = assay: Anti-metastatic activity, lung tumor colonies; type: in vivo, C57BL/6 mice; conditions: i.v. or s.c., 15 days
Excerpt: After 15 days, the animal is sacrificed and lung tumor colonies are quantitated.

[6] = test system: E. coli-induced septic shock; assay: E. coli-induced septicemia / disseminated intravascular coagulation; type: in vivo, baboon; conditions: 0.08 mg/kg/hr infusion
Excerpt: We induced septicemia in baboons by injection of a lethal dose of live E. coli according to the method described by F. B. Taylor et al. J. Clin. Invest., 79, pp. 918-25 (1987).

[7] = test system: pooled, normal human plasma; assay: Activated partial thromboplastin time (APTT) assay in plasma; type: biochemical; conditions: 10 to 32,300 ng/ml
Excerpt: Hirulog-8 using pooled, normal human plasma (George King Biomedical, Overland Park, Kans.) and a Coag-A-Mate XC instrument (General Diagnostics, Organon Technica, Oklahoma City, Okla.). Activity was monitored using the activated partial thromboplastin time (APTT) assay with CaCl2 and phospholipid solutions obtained from the manufacturer.

APTT [8] = assay: Systemic anticoagulant effect (APTT) of antithrombotic agents; type: in vivo, baboon; conditions: dose not given
Excerpt: We also tested the effects of a variety of other agents on template bleeding time in the baboon, as well as on systemic anticoagulant effects (as measured by APTT).

[9] = Clearance times monitored by APTT; type: in vivo, baboon
Method: APTT assays, performed as described in Example 11, were used to monitor clearance times.
APTT was measured following the 60 minute infusion and at various time intervals thereafter.
APTT measurements were taken at various time intervals following injection.

[10] = test system: platelet-dependent thrombosis; conditions: collagen-coated silastic tubing, 160 U/kg bolus then 160 U/kg/hr infusion; cited from earlier work
soluble thrombin = target: T1, soluble thrombin (Homo sapiens, UniProt P00734); assay: Fibrinopeptide A (FPA) release by soluble thrombin; type: biochemical; conditions: 0.1 U/ml
T1 construct: We added a 270-fold excess of ^14 C-DFP to thrombin

clot-bound thrombin = clot-bound thrombin (Homo sapiens, UniProt P00734); assay: Fibrinopeptide A (FPA) release by clot-bound thrombin; type: biochemical; conditions: similar dose (0.1 U/ml)

Compound: CC[C@H](C)[C@H](NC(=O)[C@H](CCC(=O)O)NC(=O)[C@H](CCC(=O)O)NC(=O)[C@H](Cc1ccccc1)NC(=O)[C@H](CC(=O)O)NC(=O)CNC(=O)[C@H](CC(N)=O)NC(=O)CNC(=O)CNC(=O)CNC(=O)CNC(=O)[C@@H]1CCCN1C(=O)[C@H](CCCNC(=N)N)NC(=O)[C@@H]1CCCN1C(=O)[C@H](N)Cc1ccccc1)C(=O)N1CCC[C@H]1C(=O)N[C@@H](CCC(=O)O)C(=O)N[C@@H](CCC(=O)O)C(=O)N[C@@H](Cc1ccc(O)cc1)C(=O)N[C@@H](CC(C)C)C(=O)O [Hirulog-8]
fibrin(ogen) deposition (fibrin(ogen) deposition; 0.01 mg/kg/min): completely inhibited fibrin(ogen) deposition | fibrin(ogen) deposition (fibrin(ogen) deposition; 0.04 mg/kg/min): completely inhibited fibrin(ogen) deposition | adherent PMNs versus saline (HUVECs): significantly fewer adherent PMNs | thrombin-induced platelet activation [1]: blocks thrombin-induced platelet activation | synthesis of PAF by HUVECs [2]: inhibits the synthesis of PAF | ED50 ([3]; collagen-coated Gortex): 0.135 mg/kg/min | inhibition of platelet deposition ([3]; collagen-coated Gortex, 0.2 mg/kg/min): 62.9% | ED50 ([3]; collagen-coated silastic tubing): 0.004 mg/kg/min | inhibition of platelet-dependent thrombus formation compared to control ([3]; collagen-coated silastic tubing, 5 nmole/kg/min): 60-70% | inhibition of platelet deposition ([3]; collagen-coated silastic tubing, 0.04 mg/kg/min): completely inhibited platelet deposition | ED50 ([3]; collagen-coated surfaces, applicants' determinations): < 5 nmol/kg/min | ED50 (dosage required to reduce platelet deposition by 50%) ([3]; endarterectomized baboon aorta): 0.002 mg/kg/min | inhibition of platelet deposition ([3]; endarterectomized baboon aorta, 0.002 mg/kg/min, 60 minutes): 53.6% | inhibition of platelet deposition ([3]; endarterectomized baboon aorta, 0.01 mg/kg/min, 60 minutes): 75.5% | increase in bleeding time over control values (hemostasis; 0.1 mg/kg/min): two-fold | bleeding times (hemostasis; 0.2 mg/kg/min): 3 times control values | bleeding times (hemostasis; 0.002 to 0.04 mg/kg/min): no significant increase in bleeding times | Bleeding Time (hemostasis; dose not given): 5.5 min | increase in the APTT (APTT [4]; 0.002 mg/kg/min infusion): 200 % increase | APTT response to dose (APTT [4]; 0.002 to 0.2 mg/kg/min i.v.): dose-dependent increase in the APTT | inhibition of platelet accumulation ([5]; high shear): 29.0% | inhibition of platelet accumulation ([5]; low shear): 42.6% | anti-metastatic activity (reduction in lung tumor colonies) (sarcoma T241 cells): demonstrates anti-metastatic activity | hematocrit drop [6]: completely attenuated hematocrit drop | intravascular thrombosis at autopsy [6]: only the control group displayed intravascular thrombosis | morbidity after lethal infusion of E. coli [6]: still resulted in morbidity | peak drop in blood pressure [6]: 60 % of baseline | maximal increase of APTT of plasma [7]: too high to be measured | APTT (% control) (APTT [8]): 300.6 % control | half-life ([9]; 1 mg/kg i.v. bolus): 14 min | peak APTT ([9]; 1 mg/kg i.v. bolus, 2 minutes after injection): 570 % of control | absorption after subcutaneous administration ([9]; 1 mg/kg subcutaneous): quantitatively adsorbed | clearance half-time ([9]; 1 mg/kg subcutaneous): 340 min | APTT ([9]; 1 mg/kg subcutaneous, 15 minutes): approximately 200 % of control | average half-time for clearance ([9]; after 60 minute i.v. infusion, 0.002-0.2 mg/kg/min): 9.2 ± 3.3 min

inhibition of FPA release catalyzed by soluble thrombin (soluble thrombin): approximately 70% | Bleeding Time (hemostasis; in vivo): 10 min | effect on FPA release catalyzed by clot-bound thrombin (clot-bound thrombin): no effect
Compound: Heparin
platelet deposition level relative to saline-treated control [10]: about 80% | APTT (% control) (APTT [8]): 706.1 % control
